Test results as given in article PMC10060354, “Discovery of a small molecule ligand of FRS2 that inhibits invasion and tumor growth” (Cellular Oncology, 2022).
Read-outs that look alike come from different tables or passages of the source.

Experiments:
[1] = test system: FRS2 (Y436) phosphorylation; test: Immunoblotting, FRS2 phosphorylation; assay type: cell-based, human; details: RT-112 cells
Method: (§1) Cells were serum starved o.n. and 10 µM compound or 1 µM (BGJ398) were added 3 h before stimulation with 100 ng/ml bFGF for 15 min. Cells were lysed in RIPA buffer containing protease inhibitor cocktail and lysates resolved by SDS-PAGE. Membranes were probed with primary antibodies against phospho-FRS2, FRS2, phospho-ERK1/2, ERK1/2, pAKT, AKT and tubulin. Integrated density of immuno-reactive bands was quantified using Adobe Photoshop CS3. Integrated densities of phospho bands relative to non-phospho bands of same protein were calculated and plotted as fold-change relative to untreated control conditions. Compounds and BGJ398 were added in DMSO and corresponding DMSO concentrations were used in control samples.

ERK (pT202/Y204) = test: Immunoblotting, ERK phosphorylation; assay type: cell-based, human; details: DAOY, SW780, M059K, SKOV3, AGS, DMS114 and RT-112 cells; 10 µM compound or 1 µM BGJ398
Method: as §1

[2] = test system: bFGF-sensitive (M059K, RT-112, SW780) and bFGF-insensitive (SKOV3, AGS and HCT116) cell lines; test: SIA, collagen I invasion in panel of human cancer cell models; assay type: cell-based; details: 10 µM
Method: 1000—2500 cells/well in 100 μl were seeded in 96 well Corning® Spheroid microplate (CLS4520, Sigma-Aldrich) or in cell-repellent 96 well microplate (650,790, Greiner Bio-one). SIA and analysis was performed as described before. In brief: After spheroid formation (24 – 72 h after seeding), 70 µl medium was removed and replaced with the collagen mixture (2.5 mg/ml Pure Col Collagen I (Advanced Biomatrix)), DMEM 1x (from 10 × stock, Sigma, D2429) and 0.4% Sodium bicarbonate (Sigma, S8761)), resulting in a final collagen concentration of 1.75 mg/ml. Embedded spheroids were stimulated with bFGF (100 ng/ml if not otherwise stated), HGF (30 ng /ml) or EGF (20 ng/ml) and distance of invaded cells quantified 24 – 48 h after embedding. Compounds and BGJ398 were added in Dimethylsulfoxid (DMSO) and corresponding DMSO concentrations were used in control samples.

[3] = In vivo bioavailability / PK after 1 mg/kg IV or 10 mg/kg PO; parameters: species or system Male ICR mice
Method: In vivo bioavailability studies were performed by Pharmacology Discovery Services Taiwan, Ltd., (New Taipei City, Taiwan). Male ICR mice weighing 20—30 g were provided by BioLasco Taiwan (under Charles River Laboratories Licensee). Animals were acclimated for 3 days prior to use and were confirmed with good health. All animals were maintained in a hygienic environment with controlled temperature (20—24 °C), humidity (30%—70%) and 12 h light/dark cycles. Free access to sterilized standard lab diet [MFG (Oriental Yeast Co., Ltd., Japan)] and autoclaved tap water. A pharmacokinetic (PK) study was performed in male ICR mice following intravenous (IV) and oral (PO) administration of compound 7 and E12 and IV administration of the test compound 3.14. The three test compounds (7, E12 and 3.14) were formulated in 1% dimethyl sulfoxide (DMSO)/10% Solutol® HS-15/ phosphate buffered saline (PBS) at 0.2 mg/mL and 1 mg/mL for IV and PO administration, respectively. The dosing volumes were 5 ml/kg for IV and 10 ml/kg for PO. The dose was 1 mg/kg for IV and 10 mg/kg for PO routes.

[4] = male, ICR, mouse, plasma, 1 mg/kg, IV
[5] = male, ICR, mouse, plasma, 10 mg/kg, PO

SMILES: O=[N+]([O-])c1c(Cl)cc(O)c2c1C1C=CCC1C(c1ccc(Cl)cc1)N2 (stereo not drawn) [Compound 7]
- basal and bFGF-induced phosphorylation of FRS2Y436 (result in words) [1]: reduced basal and bFGF-induced phosphorylation
- basal and bFGF-induced phosphorylation of ERK (result in words) (ERK (pT202/Y204)): inhibited basal and bFGF-induced phosphorylation
- collagen I invasion across cancer cell lines (result in words) [2]: inhibited collagen I invasion in both bFGF-sensitive and bFGF-insensitive cell lines
- AUC Extr (%) ([3]; 1 mg/kg, IV): 1.2%
- AUC Extr (%) ([3]; 10 mg/kg, PO): 18.1%
- AUC/D ([3]; 10 mg/kg, PO): 407 kg·ng·h/mL/mg
- AUClast (H*ng/ml) ([3]; 10 mg/kg, PO): 3333 H*ng/ml
- AUC(0-t) ([3]; male, ICR, mouse, plasma, iv, 1 mg/kg, IV, read-out: AUClast): 393 ng·h/mL
- AUC(0-t) ([3]; male, ICR, mouse, plasma, iv, 1 mg/kg, mice, 1 mg/kg IV, read-out: AUClast after IV administration): 398 ng·h/mL
- AUC(0-t) ([3]; male, ICR, mouse, plasma, po, 10 mg/kg, mice, 10 mg/kg PO, read-out: AUClast after PO administration): 3330 ng·h/mL
- AUC(0-inf) [3, 4]: 398 ng·h/mL
- MRT [3, 4]: 0.29 h
- clearance [3, 4]: 42 mL/min/kg
- half-life [3, 4]: 68.4 min
- Vd ([3]; male, ICR, mouse, plasma, 1 mg/kg, IV, read-out: Vss): 0.7 L/kg
- AUC(0-inf) [3, 5]: 4070 ng·h/mL
- MRT [3, 5]: 4.71 h
- Tmax [3, 5]: 30 min
- bioavailability [3, 5]: 85%
- half-life [3, 5]: 230 min
- C0 ([3]; male, ICR, mouse, mice, 1 mg/kg IV, plasma, read-out: C0 after IV administration): 2870 ng/mL
- Cmax ([3]; male, ICR, mouse, mice, 10 mg/kg PO, plasma, read-out: Cmax (oral bioavailability) after PO administration): 1400 ng/mL
- CL1/2 after IV administration ([3]; mice, 1 mg/kg IV): 1.14 h
- CL1/2 after PO administration ([3]; mice, 10 mg/kg PO): 3.83 h
